Data published in patent US20020137929A1, “1 - (3-heterocyclylphenyl) isothiourea, -isourea, -guanidine and -amidine herbicidal agents” (Intellectual Property Department, BASF Aktiengesellschaft, priority 1998, published 2002).

Columns and labels:
[1] = tested on: AMBEL (Ragweed, Common); experiment: Preemergence herbicidal evaluation; type: in vivo, Ambrosia artemisifolia; conditions: rated 4-5 weeks after treatment
Procedure, shortened: (§1)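 Each species is sown separately in potting soil over roughly an inch of soil before any emergence. The soil surface then receives an aqueous acetone spray delivering about 0.0156 to 0.500 kg/ha of compound. After four to five weeks, injury is scored from 0 to 9 relative to a control.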

[2] = tested on: GALAP (Galium); experiment: Preemergence herbicidal evaluation; type: in vivo, Galium aparine; conditions: rated 4-5 weeks after treatment
Procedure, shortened: as §1

[3] = tested on: ECHORC (Watergrass (Calif.)); experiment: Postemergence weed control under flooded paddy conditions; type: in vivo, Echinochloa oryzoides; conditions: postemergence weeds, 3-4 weeks after treatment
Procedure, shortened: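 Herbicidal effect is judged by eye on a 0–9 scale versus control, 3–4 weeks after dosing. Dosing is into flood water kept 1.5–3 cm over the soil, at about 0.0313–0.500 kg/ha in aqueous/acetone 50/50 v/v, on 3–5 cm weeds and 1.5–2.5-leaf rice seedlings.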

[4] = tested on: ZEAMX (Corn, Field); experiment: Postemergence herbicidal evaluation; type: in vivo, Zea mays; conditions: postemergence
Procedure, shortened: (§2)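 Seedlings grown about two weeks were sprayed at 40 psi with compound dispersed in 50/50 acetone/water plus 0.5% TWEEN 20, at about 0.0156 to 0.500 kg/ha. Plants were kept in the greenhouse and scored 4–5 weeks later on a 0–9 visual scale against untreated controls.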

[5] = tested on: GLXMAW (Soybean, Williams); experiment: Postemergence herbicidal evaluation; type: in vivo, Glycine max, (L.) Merr. cv Williams; conditions: postemergence
Procedure, shortened: as §2

[6] = tested on: SETVI (Foxtail, Green); experiment: Preemergence herbicidal evaluation; type: in vivo, Setaria viridis; conditions: rated 4-5 weeks after treatment
Procedure, shortened: as §1

[7] = tested on: CASOB (Sicklepod); experiment: Preemergence herbicidal evaluation; type: in vivo, Cassia obtusifolia; conditions: rated 4-5 weeks after treatment
Procedure, shortened: as §1

[8] = tested on: IPOHE (Morningglory, Ivyleaf); experiment: Postemergence herbicidal evaluation; type: in vivo, Ipomoea hederacea; conditions: postemergence
Procedure, shortened: as §2

[9] = tested on: ABUTH (Velvetleaf); experiment: Preemergence herbicidal evaluation; type: in vivo, Abutilon theophrasti; conditions: rated 4-5 weeks after treatment
Procedure, shortened: as §1

[10] = tested on: SAGPY (Arrowhead (Pygmaea)); experiment: Preemergence weed control under flooded paddy conditions; type: in vivo, Sagittaria pygmaea; conditions: rated 3-4 weeks after treatment
Procedure, shortened: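 Greenhouse paddy assay. Acetone/water (50/50 v/v) solutions dosed into flood water, equivalent to about 0.0313 to 0.500 kg/ha active ingredient, over seeds planted 0.5 cm deep in silt loam. Score: 0-9 visual, based on stand, vigor, malformation, size and chlorosis, 3 to 4 weeks after treatment.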

[11] = tested on: AMBEL (Ragweed, Common); experiment: Postemergence herbicidal evaluation; type: in vivo, Ambrosia artemisifolia; conditions: postemergence
Procedure, shortened: as §2

[12] = tested on: ECHCG (Barnyardgrass); experiment: Preemergence herbicidal evaluation; type: in vivo, Echinochloa crus-galli; conditions: rated 4-5 weeks after treatment
Procedure, shortened: as §1

[13] = tested on: GLXMAW (Soybean, Williams); experiment: Preemergence herbicidal evaluation; type: in vivo, Glycine max, (L.) Merr. cv Williams; conditions: rated 4-5 weeks after treatment
Procedure, shortened: as §1

CCOC(=O)CN1C(=O)CN(C)C1=Nc1cc(-n2c(=O)cc(C(F)(F)F)n(C)c2=O)c(F)cc1Cl [Compound 25, Ethyl 2-{{2-chloro-5-[3,6-dihydro-3-methyl-2,6-dioxo-4-(trifluoromethyl)-1(2H)-pyrimidinyl]-4-fluorophenyl}imino}-3-methyl-5-oxo-1-imidazolidineacetate]
5.5: ZEAMX herbicidal rating ([4]; rate 0.0313 kg/ha)
0.0: Preemergence herbicidal rating AMBEL ([1]; rate 0.0156 kg/ha) | Preemergence herbicidal rating GALAP ([2]; rate 0.0156 kg/ha) | Preemergence herbicidal rating GALAP ([2]; rate 0.0313 kg/ha) | GALAP preemergence herbicidal rating ([2]; rate 0.0625 kg/ha) | GALAP preemergence herbicidal rating ([2]; rate 0.1250 kg/ha) | GALAP preemergence herbicidal rating ([2]; rate 0.2500 kg/ha) | Preemergence herbicidal rating SETVI ([6]; rate 0.0156 kg/ha) | Preemergence herbicidal rating SETVI ([6]; rate 0.0313 kg/ha) | Preemergence herbicidal rating CASOB ([7]; rate 0.0156 kg/ha) | Preemergence herbicidal rating CASOB ([7]; rate 0.0313 kg/ha) | CASOB preemergence herbicidal rating ([7]; rate 0.0625 kg/ha) | Herbicidal rating SAGPY ([10]; 0.0313 kg/ha) | Herbicidal rating SAGPY ([10]; 0.0625 kg/ha) | Preemergence herbicidal rating ECHCG ([12]; rate 0.0156 kg/ha) | Preemergence herbicidal rating ECHCG ([12]; rate 0.0313 kg/ha) | ECHCG preemergence herbicidal rating ([12]; rate 0.0625 kg/ha) | ECHCG preemergence herbicidal rating ([12]; rate 0.1250 kg/ha) | Preemergence herbicidal rating GLXMAW ([13]; rate 0.0156 kg/ha) | Preemergence herbicidal rating GLXMAW ([13]; rate 0.0313 kg/ha)
5.0: Herbicidal rating SAGPY ([10]; 0.1250 kg/ha) | Herbicidal rating SAGPY ([10]; 0.2500 kg/ha)
2.0: Preemergence herbicidal rating AMBEL ([1]; rate 0.0313 kg/ha) | CASOB preemergence herbicidal rating ([7]; rate 0.1250 kg/ha) | GLXMAW preemergence herbicidal rating ([13]; rate 0.0625 kg/ha)
7.0: Herbicidal rating ECHORC ([3]; rate 0.1250 kg/ha) | ZEAMX herbicidal rating ([4]; rate 0.0625 kg/ha) | GLXMAW herbicidal rating ([5]; rate 0.0156 kg/ha) | SETVI preemergence herbicidal rating ([6]; rate 0.0625 kg/ha) | ECHCG preemergence herbicidal rating ([12]; rate 0.2500 kg/ha)
9.0: AMBEL preemergence herbicidal rating ([1]; rate 0.0625 kg/ha) | AMBEL preemergence herbicidal rating ([1]; rate 0.1250 kg/ha) | AMBEL preemergence herbicidal rating ([1]; rate 0.2500 kg/ha) | Herbicidal rating ECHORC ([3]; rate 0.2500 kg/ha) | SETVI preemergence herbicidal rating ([6]; rate 0.1250 kg/ha) | SETVI preemergence herbicidal rating ([6]; rate 0.2500 kg/ha) | IPOHE herbicidal rating ([8]; rate 0.0156 kg/ha) | IPOHE herbicidal rating ([8]; rate 0.0313 kg/ha) | IPOHE herbicidal rating ([8]; rate 0.0625 kg/ha) | Preemergence herbicidal rating ABUTH ([9]; rate 0.0156 kg/ha) | Preemergence herbicidal rating ABUTH ([9]; rate 0.0313 kg/ha) | ABUTH preemergence herbicidal rating ([9]; rate 0.0625 kg/ha) | ABUTH preemergence herbicidal rating ([9]; rate 0.1250 kg/ha) | ABUTH preemergence herbicidal rating ([9]; rate 0.2500 kg/ha) | AMBEL herbicidal rating ([11]; rate 0.0625 kg/ha)
3.5: ZEAMX herbicidal rating ([4]; rate 0.0156 kg/ha)
6.0: Herbicidal rating ECHORC ([3]; rate 0.0625 kg/ha) | GLXMAW preemergence herbicidal rating ([13]; rate 0.2500 kg/ha)
4.0: Herbicidal rating ECHORC ([3]; rate 0.0313 kg/ha) | AMBEL herbicidal rating ([11]; rate 0.0313 kg/ha)
7.5: GLXMAW herbicidal rating ([5]; rate 0.0313 kg/ha)
3.0: CASOB preemergence herbicidal rating ([7]; rate 0.2500 kg/ha) | AMBEL herbicidal rating ([11]; rate 0.0156 kg/ha) | GLXMAW preemergence herbicidal rating ([13]; rate 0.1250 kg/ha)
8.0: GLXMAW herbicidal rating ([5]; rate 0.0625 kg/ha)

Cn1c(C(F)(F)F)cc(=O)n(-c2cc(N=C3SCC(=O)N3Cc3ccccc3)c(Cl)cc2F)c1=O [Compound 26]
9.0: Preemergence herbicidal rating GALAP ([2]; rate 0.1250 kg/ha) | Preemergence herbicidal rating GALAP ([2]; rate 0.2500 kg/ha) | Herbicidal rating ECHORC ([3]; rate 0.0625 kg/ha) | Herbicidal rating ECHORC ([3]; rate 0.1250 kg/ha) | Herbicidal rating ECHORC ([3]; rate 0.2500 kg/ha) | Preemergence herbicidal rating SETVI ([6]; rate 0.2500 kg/ha) | IPOHE herbicidal rating ([8]; rate 0.0156 kg/ha) | IPOHE herbicidal rating ([8]; rate 0.0313 kg/ha) | IPOHE herbicidal rating ([8]; rate 0.0625 kg/ha) | Preemergence herbicidal rating ABUTH ([9]; rate 0.2500 kg/ha) | AMBEL herbicidal rating ([11]; rate 0.0156 kg/ha) | AMBEL herbicidal rating ([11]; rate 0.0625 kg/ha)
7.0: Herbicidal rating ECHORC ([3]; rate 0.0313 kg/ha) | Herbicidal rating SAGPY ([10]; 0.2500 kg/ha)
5.5: ZEAMX herbicidal rating ([4]; rate 0.0625 kg/ha) | GLXMAW herbicidal rating ([5]; rate 0.0156 kg/ha) | GLXMAW herbicidal rating ([5]; rate 0.0313 kg/ha)
4.0: Herbicidal rating SAGPY ([10]; 0.0625 kg/ha)
2.0: Preemergence herbicidal rating ECHCG ([12]; rate 0.2500 kg/ha)
5.0: Preemergence herbicidal rating AMBEL ([1]; rate 0.1250 kg/ha) | Preemergence herbicidal rating AMBEL ([1]; rate 0.2500 kg/ha) | Preemergence herbicidal rating SETVI ([6]; rate 0.1250 kg/ha) | Herbicidal rating SAGPY ([10]; 0.1250 kg/ha)
1.0: Preemergence herbicidal rating ECHCG ([12]; rate 0.1250 kg/ha) | Preemergence herbicidal rating GLXMAW ([13]; rate 0.2500 kg/ha)
8.0: AMBEL herbicidal rating ([11]; rate 0.0313 kg/ha)
4.5: ZEAMX herbicidal rating ([4]; rate 0.0313 kg/ha)
3.5: ZEAMX herbicidal rating ([4]; rate 0.0156 kg/ha)
0.0: Preemergence herbicidal rating AMBEL ([1]; rate 0.0156 kg/ha) | Preemergence herbicidal rating AMBEL ([1]; rate 0.0313 kg/ha) | Preemergence herbicidal rating AMBEL ([1]; rate 0.0625 kg/ha) | Preemergence herbicidal rating GALAP ([2]; rate 0.0156 kg/ha) | Preemergence herbicidal rating GALAP ([2]; rate 0.0313 kg/ha) | Preemergence herbicidal rating GALAP ([2]; rate 0.0625 kg/ha) | Preemergence herbicidal rating SETVI ([6]; rate 0.0156 kg/ha) | Preemergence herbicidal rating SETVI ([6]; rate 0.0313 kg/ha) | Preemergence herbicidal rating SETVI ([6]; rate 0.0625 kg/ha) | Preemergence herbicidal rating CASOB ([7]; rate 0.0156 kg/ha) | Preemergence herbicidal rating CASOB ([7]; rate 0.0313 kg/ha) | Preemergence herbicidal rating CASOB ([7]; rate 0.0625 kg/ha) | Preemergence herbicidal rating CASOB ([7]; rate 0.1250 kg/ha) | Preemergence herbicidal rating CASOB ([7]; rate 0.2500 kg/ha) | Preemergence herbicidal rating ABUTH ([9]; rate 0.0156 kg/ha) | Preemergence herbicidal rating ABUTH ([9]; rate 0.0313 kg/ha) | Preemergence herbicidal rating ABUTH ([9]; rate 0.0625 kg/ha) | Herbicidal rating SAGPY ([10]; 0.0313 kg/ha) | Preemergence herbicidal rating ECHCG ([12]; rate 0.0156 kg/ha) | Preemergence herbicidal rating ECHCG ([12]; rate 0.0313 kg/ha) | Preemergence herbicidal rating ECHCG ([12]; rate 0.0625 kg/ha) | Preemergence herbicidal rating GLXMAW ([13]; rate 0.0156 kg/ha) | Preemergence herbicidal rating GLXMAW ([13]; rate 0.0313 kg/ha) | Preemergence herbicidal rating GLXMAW ([13]; rate 0.0625 kg/ha) | Preemergence herbicidal rating GLXMAW ([13]; rate 0.1250 kg/ha)
6.0: GLXMAW herbicidal rating ([5]; rate 0.0625 kg/ha) | Preemergence herbicidal rating ABUTH ([9]; rate 0.1250 kg/ha)
